How the values were obtained:
mice = experiment: Amphetamine-induced hyperlocomotion (open field); assay type: in vivo; conditions: drug 2 amphetamine SC
Protocol: Table 2, below, indicates the locomotor responses of mice treated with various combinations of alpha-2B receptor agonists and the psychostimulant amphetamine. Drug 1 was administered 30 minutes after the animal was placed in the open field. Drug 2 was administered subcutaneously (SC) at 45 minutes after the animal was placed in the open field (15 minutes after drug 1). AUC indicates the total amount of locomotor activity after administration of drug 2. “% decrease activity” indicates the percentage decrease in total activity relative to the Vehicle+Amphetamine group. ° indicates significant difference (P<0.05) relative to Vehicle+Amphetamine treated animals. * indicates significant difference (P<0.05) relative to Vehicle+Vehicle treated animals.
Amphetamine- or cocaine-induced hyperactivity. Mice were placed in an open field apparatus (FlexField, San Diego Instruments, San Diego, Calif.). After 30 minutes of habituation, they received a vehicle or haloperidol injection or injection of alpha-2B receptor agonist followed by an injection of amphetamine (2 mg/kg, s.c.) or cocaine (10 mg/kg, i.p.) at minute 45. Their activity levels were subsequently measured for another 1 hour post-injection. Total activity over each 5 minute bin (21 total bins) was added to establish activity curve over the 105 minute testing.
(§1) For i.p. administration, the compounds are formulated in H2O with 0.5% DMSO and given in a volume of 1 ml/kg body weight by injecting into the intraperitoneal cavity. For p.o. administration, the compounds are formulated in H2O with 0.5% DMSO and given in a volume of 2 ml/kg body weight using a 25-gauge, 1.5 inch gavage needle that is slowly inserted through the esophagus into the stomach.

alpha-2A receptor = target: T1, alpha-2A receptor (Homo sapiens, UniProt P08913); experiment: Alpha-2A receptor activity (efficacy relative to brimonidine); assay type: cell-based; conditions: in words; b7: lacks significant activity = less than 40% of the efficacy of brimonidine at alpha-2A
T1 sequence (P08913 1-465): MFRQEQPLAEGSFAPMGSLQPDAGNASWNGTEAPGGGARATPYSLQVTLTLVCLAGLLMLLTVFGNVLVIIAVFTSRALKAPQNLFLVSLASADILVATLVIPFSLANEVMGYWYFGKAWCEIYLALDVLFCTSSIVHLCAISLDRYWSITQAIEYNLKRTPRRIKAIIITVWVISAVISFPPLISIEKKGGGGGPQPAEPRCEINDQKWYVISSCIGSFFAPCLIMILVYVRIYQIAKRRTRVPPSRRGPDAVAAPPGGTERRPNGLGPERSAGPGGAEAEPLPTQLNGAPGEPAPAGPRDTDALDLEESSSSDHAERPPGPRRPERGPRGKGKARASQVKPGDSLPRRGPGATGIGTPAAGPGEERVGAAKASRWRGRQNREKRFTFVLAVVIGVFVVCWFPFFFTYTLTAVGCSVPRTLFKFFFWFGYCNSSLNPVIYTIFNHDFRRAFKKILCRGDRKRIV
Excerpt: The methods of the present invention use alpha-2 agonists lacking significant activity at the alpha-2A receptor subtype. An agonist lacks significant alpha-2A receptor activity if the agonist has less than 40% of the efficacy of brimonidine at the alpha-2A receptor subtype. Compounds of the invention include, therefore, alpha-2B receptor agonists lacking significant alpha-2A activity; alpha 2B/2C receptor agonists lacking significant alpha-2A activity; and alpha-2C receptor agonists lacking significant alpha-2A activity.
Efficacy, also known as intrinsic activity, is a measure of maximal receptor activation achieved by a compound and can be determined using any accepted assay of alpha-adrenergic receptor activation, such as a cAMP or Receptor Selection and Amplification Technology (RSAT). Efficacy is represented as a ratio or percentage of the maximal effect of the drug to the maximal effect of a standard agonist for each receptor subtype. Brimonidine, itself an alpha-2B receptor agonist (it is has 100% the efficacy of brimonidine at the alpha-2B adrenergic receptor), is used as the standard agonist for the alpha-2B adrenergic receptors.
Agonist activity can be characterized using any of a variety of routine assays, including, for example, Receptor Selection and Amplification Technology (RSAT) assays (Messier et al., Pharmacol. Toxicol. 76:308-11 (1995); cyclic AMP assays (Shimizu et al., J. Neurochem. 16:1609-1619 (1969)); and cytosensor microphysiometry assays (Neve et al., J. Biol. Chem. 267:25748-25753 (1992)). Such assays generally are performed using cells that naturally express only a single alpha-adrenergic receptor subtype, or using transfected cells expressing a single recombinant alpha-adrenergic receptor subtype. The adrenergic receptor can be a human receptor or homolog of a human receptor having a similar pharmacology.
The RSAT assay measures receptor-mediated loss of contact inhibition resulting in selective proliferation of receptor-containing cells in a mixed population of confluent cells. The increase in cell number is assessed with an appropriate detectable marker gene such as beta-galactosidase, if desired, in a high throughput or ultra high throughput assay format. Receptors that activate the G protein, Gq, elicit the proliferative response. Alpha-adrenergic receptors, which normally couple to Gi, activate the RSAT response when coexpressed with a hybrid Gq protein containing a Gi receptor recognition domain, designated Gq/i5. Conklin et al., Nature 363:274-6 (1993)).
As an example, an RSAT assay can be performed essentially as follows. NIH-3T3 cells are plated at a density of 2×10^6 cells in 15 cm dishes and maintained in Dulbecco's modified Eagle's medium supplemented with 10% calf serum. One day later, cells are cotransfected by calcium phosphate precipitation with mammalian expression plasmids encoding p-SV-β-galactosidase (5-10 μg), receptor (1-2 μg) and G protein (1-2 μg). Carrier DNA, for example 40 μg salmon sperm DNA, also can be included to increase transfection efficiency. Fresh media is added on the following day; one to two days later, cells are harvested and frozen in 50 assay aliquots. Transfected cells are thawed, and 100 μl of cells added to 100 μl aliquots of compound to be tested, with various concentrations assayed in triplicate, for example, in 96-well plates. Incubation continues for 72 to 96 hours at 37° C. After washing with phosphate-buffered saline, β-galactosidase activity is determined by adding 200 μl of chromogenic substrate (3.5 mM O-nitrophenyl-β-D-galactopyranoside/0.5% NP-40 in phosphate buffered saline), incubating overnight at 30° C., and measuring optical density at 420 nm. The absorbancy is a measure of enzyme activity, which depends on cell number and reflects receptor-mediated cell proliferation. The EC50 and maximal effect (i.e., efficacy) of each drug at each receptor is determined.

[1] = system: nigrostriatal-lesioned rats; experiment: Nigrostriatal-lesion-induced rotational behavior following amphetamine administration; assay type: in vivo; conditions: relative to Vehicle+Amphetamine, drug 2 amphetamine SC
Protocol: Table 4, below, indicates the changes in rotational behavior in nigrostriatal-lesioned rats treated with various alpha-2B receptor agonists and the psychostimulant amphetamine. Drug 1 was administered 15 minutes before amphetamine, and 10 minutes post-amphetamine, the animals were placed into the rotometer for 30 or 60 minutes. “% decrease rotations” indicates the percentage decrease in total rotations relative to the Vehicle+Amphetamine group. ^⋄ indicates significant difference (P<0.05) relative to Vehicle+Amphetamine treated animals. * indicates significant difference (P<0.05) relative to Vehicle+Vehicle treated animals.
Amphetamine-induced rotational behavior. Pre-Apomorphine-screened (rotated) rats (with lesions ≧95% DA cell loss) were purchased from Charles Rivers Laboratories. Animals were given ˜4 days to acclimate prior to testing. All animals weighted 250-300 g at the beginning of the study. Animals were treated with various combinations of vehicle or alpha-2B receptor agonist and amphetamine.
Vehicle or alpha-2B receptor agonist was administered (p.o.) 15 minutes before amphetamine (2 mg/kg s.c.). Rotational behavior was assessed 15 minutes post-amphetamine administration and was monitored for 60 minutes using a Rotometer system from San Diego Instruments (San Diego, Calif.).
as §1

Row | Structure (SMILES) | % DECREASE ACTIVITY REL TO VEH + AMPH (mice; drug 1 0.03 mg/kg IP) | TOTAL ACTIVITY POST-AMPHETAMINE (AUC) (mice; drug 1 0.03 mg/kg IP) | alpha-2A receptor activity (alpha-2A receptor) | % DECREASE ACTIVITY REL TO VEH + AMPH (mice; drug 1 1 mg/kg IP) | TOTAL ACTIVITY POST-AMPHETAMINE (AUC) (mice; drug 1 1 mg/kg IP) | % DECREASE ROTATIONS ([1]; drug 1 0.03 mg/kg PO) | % DECREASE ACTIVITY REL TO VEH + AMPH (mice; drug 1 0.01 mg/kg PO) | TOTAL ACTIVITY POST-AMPHETAMINE (AUC) (mice; drug 1 0.01 mg/kg PO) | % DECREASE ACTIVITY REL TO VEH + AMPH (mice; drug 1 0.03 mg/kg PO) | TOTAL ACTIVITY POST-AMPHETAMINE (AUC) (mice; drug 1 0.03 mg/kg PO) | % DECREASE ACTIVITY REL TO VEH + AMPH (mice; drug 1 0.1 mg/kg PO) | TOTAL ACTIVITY POST-AMPHETAMINE (AUC) (mice; drug 1 0.1 mg/kg PO) | % DECREASE ACTIVITY REL TO VEH + AMPH (mice; drug 1 1 mg/kg PO) | TOTAL ACTIVITY POST-AMPHETAMINE (AUC) (mice; drug 1 1 mg/kg PO) | % DECREASE ROTATIONS ([1]; drug 1 0.1 mg/kg PO) | % DECREASE ROTATIONS ([1]; drug 1 1 mg/kg PO)
1 | Clc1cccc(C(c2ccccc2)c2c[nH]cn2)c1Cl (centres unmarked) [Compound C] | 52% ^⋄ | 6348.0 ± 423.4 | lack significant alpha-2A receptor activity |  |  |  |  |  |  |  |  |  |  |  |  | 
2 | c1ccc2c(c1)CC[C@@H](Cc1c[nH]cn1)C2 [Compound B] | 68% ^⋄ | 3940.5 ± 573.7 | lack significant alpha-2A receptor activity | 64% ^⋄ | 4462.0 ± 957.5 | 29% * ^ |  |  |  |  |  |  |  |  |  | 
3 | S=c1[nH]cc(CC2CC=CC2)[nH]1 [Compound D] |  |  | lack significant alpha-2A receptor activity |  |  |  | 14% * | 10664.0 ± 786.2 | 51% ^⋄ | 5987.5 ± 1369. | 43% ^⋄ * | 6992.5 ± 693.1 | 62% ^⋄ | 4650.0 ± 628.9 | 51% ^⋄ * | 60% ^⋄ *

— patent US20110160265A1, “METHOD OF TREATING MOTOR DISORDERS WITH ALPHA-2B ADRENERGIC RECEPTOR AGONISTS” (priority 2007, published 2011)
